Test results taken from patent US8513285B2, “3 or 4-substituted piperidine compounds” (SK Biopharmaceuticals Co., Ltd., priority 2008, dated 2013).

Assays:
mice [1] = assay: Acetic acid induced writhing test (AA writhing test); format: in vivo; conditions: 30sc, 0.8% acetic acid i.p. 30 min later, vs control group
Source text: Specially the results of Marble burying test (MB) in mice as noted in Table 3 show the compounds of the invention are related to the treatment of anxiety. Acetic Acid Induced Writhing Test (AA Writhing Test)
The Acetic acid-induced writhing test is a well-established nociceptive test using a chemical stimulus. Although several animal models of nociceptive tests have been developed to examine and compare the anti-nociceptive effects of different drugs, the anti-nociceptive effects of antidepressants appear to be test-dependent. Indeed, the acetic acid-induced writhing test is more sensitive to antidepressants than other tests using thermal, mechanical or electrical stimuli.
The animals were subcutaneously treated with the test compound with an injection volume of 10 ml/kg. The group treated with 30% PEG400 or saline served as a control group. Thirty minutes later, the mice were intraperitoneally treated with 0.8% (v/v) acetic acid. Each mouse was then placed in a cage for individual observation. The writhing numbers for 10 minutes were counted. The writhe is operationally defined as a contraction of the abdomen followed by stretching of the hind limbs. The potent ability of the compounds was determined as percent value of reduction in the number of writhing comparing to the control group.

[2] = molecular target: T1, human recombinant dopamine transporter (Homo sapiens, UniProt Q01959); assay: Dopamine transporter reuptake inhibition assay; format: cell-based; conditions: 100 nM; CHO-K1 cells with human dopamine transporter; [3H]Dopamine uptake; read-out: Inhibition % at 100 nM DA reuptake
T1 construct: expressed in transfected cells; host or cells: CHO-K1
T1 sequence (Q01959 whole entry): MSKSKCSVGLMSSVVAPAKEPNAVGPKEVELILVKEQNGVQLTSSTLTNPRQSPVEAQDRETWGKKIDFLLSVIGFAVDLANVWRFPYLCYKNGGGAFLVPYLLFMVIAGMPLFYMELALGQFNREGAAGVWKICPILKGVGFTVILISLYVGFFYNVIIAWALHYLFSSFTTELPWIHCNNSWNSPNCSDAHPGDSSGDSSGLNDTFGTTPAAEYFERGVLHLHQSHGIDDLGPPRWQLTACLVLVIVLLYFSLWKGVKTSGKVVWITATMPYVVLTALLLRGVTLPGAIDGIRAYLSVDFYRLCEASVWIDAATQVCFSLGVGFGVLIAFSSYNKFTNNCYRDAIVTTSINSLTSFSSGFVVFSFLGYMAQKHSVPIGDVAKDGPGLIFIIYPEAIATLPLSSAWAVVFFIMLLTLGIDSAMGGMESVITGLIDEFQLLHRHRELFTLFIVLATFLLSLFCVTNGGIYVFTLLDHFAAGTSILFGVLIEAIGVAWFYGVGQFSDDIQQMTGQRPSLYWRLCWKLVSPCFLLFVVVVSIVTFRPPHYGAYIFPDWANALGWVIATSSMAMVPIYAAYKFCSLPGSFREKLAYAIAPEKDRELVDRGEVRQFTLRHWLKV
Experimental: Dopamine Transporter Reuptake Inhibition Assay
The assay followed the method modified from Pristupa Z. B. et al., Mol. Pharmacol., 1994, p 125˜135.
CHO-K1 cells with human recombinant dopamine transporter were plated. Test compounds were pre-incubated with cells (4×10^5/ml) in modified Tris-HEPES buffer pH 7.1 for 20 minutes at 25° C. and then they were incubated for additional 10 minutes after 50 nM of [^3H]Dopamine was added. A lysate is obtained from solubilized cells and counted to determine [^3H]Dopamine uptake. Reduction of [^3H]Dopamine uptake by 50 percent or more (≧50%) relative to 10 μM nomifensine indicates significant inhibitory activity. Compounds were tested at 10, 1, 0.1, 0.01 and 0.001 μM for IC50s.

[3] = molecular target: T2, human recombinant norepinephrine transporter (Homo sapiens, UniProt P23975); assay: Norepinephrine transporter reuptake inhibition assay; format: cell-based; conditions: 100 nM; MDCK cells with human norepinephrine transporter; [3H]Norepinephrine uptake; read-out: Inhibition % at 100 nM NE reuptake
T2 construct: expressed in transfected cells; host or cells: MDCK
T2 sequence (P23975 whole entry): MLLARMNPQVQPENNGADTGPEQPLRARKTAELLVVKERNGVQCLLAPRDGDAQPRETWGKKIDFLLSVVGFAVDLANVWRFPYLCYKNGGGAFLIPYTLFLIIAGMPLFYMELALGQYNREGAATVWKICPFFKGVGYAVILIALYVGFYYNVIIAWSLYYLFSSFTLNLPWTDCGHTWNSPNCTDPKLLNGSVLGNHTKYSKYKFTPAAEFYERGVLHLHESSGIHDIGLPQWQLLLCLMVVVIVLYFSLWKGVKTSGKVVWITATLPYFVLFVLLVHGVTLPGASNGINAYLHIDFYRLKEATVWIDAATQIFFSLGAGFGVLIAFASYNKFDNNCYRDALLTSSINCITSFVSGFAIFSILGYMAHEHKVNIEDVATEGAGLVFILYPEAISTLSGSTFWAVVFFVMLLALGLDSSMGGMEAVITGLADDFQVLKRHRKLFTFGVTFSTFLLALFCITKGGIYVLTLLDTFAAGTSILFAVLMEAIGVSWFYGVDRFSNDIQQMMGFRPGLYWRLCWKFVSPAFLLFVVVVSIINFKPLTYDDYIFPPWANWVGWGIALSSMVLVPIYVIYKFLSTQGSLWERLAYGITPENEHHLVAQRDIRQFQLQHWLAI
Experimental: Norepinephrine Transporter Reuptake Inhibition Assay
Norepinephrine transporter reuptake inhibition assay used the method described by Galli A. et al., J Exp Biol., 1995, 198, p 2197˜2212.
MDCK cells with stably expressed human recombinant norepinephrine transporter were plated one day. Test compounds were pre-incubated with cells (2×10^5/ml) in modified Tris-HEPES buffer pH 7.1 for 20 minutes at 25° C. and then they were incubated for additional 10 minutes after 25 nM of [^3H]Norepinephrine was added. A lysate was obtained from solubilized cells and the filtered lysate was counted to determine [^3H]Norepinephrine uptake. Reduction of [^3H]Norepinephrine uptake by 50 percent or more (≧50%) relative to 10 μM desipramine indicates significant inhibitory activity. Compounds were screened at 10, 1, 0.1, 0.01 and 0.001 μM to determine their IC50s.

mice [4] = assay: Marble burying test; format: in vivo; conditions: 30ip, 30 min after treatment, vs control group
Source text: The Marble burying test is a screening tool for putative anxiolytics. In this test, control mice naturally bury glass marbles in the cage bedding and the administration of anxiolytic compounds, including Diazepam, reduces the number of buried marbles. Positive compounds in the marble burying test including selective serotonin reuptake inhibitor may be especially beneficial to obsessive-compulsive disorder.
A group of mice was intraperitoneally treated with test compound dissolved in 30% PEG400 with an injection volume of 10 ml/kg. The group treated with only 30% PEG400 served as a control group. Thirty minutes after the treatment, the animals were individually placed in a polycarbonate cage which was same as used for animal housing with an open top located within a quiet room. Each cage consisted of ⅛ inch corn bedding 5 cm deep. Twenty four clean glass marbles (15 mm diameter) were evenly spaced in four rows of six on top of the bedding. Each mouse was left in the cage for 30 minutes and the number of marbles buried (buried more than ½ or ⅔) was counted. The potent ability of the compounds was determined as percent value of reduction in the number of marbles buried comparing to the control group.

mice [5] = assay: Forced swimming test in mice (FST); format: in vivo; conditions: Mus musculus, 0.5 h, 30ip, 30 min after administration, vs control group, read-out: Reduction % at 30ip (duration of immobility)
Experimental: Forced Swimming Test in Mice (FST)
The Forced swimming test is an animal model based on the rodent's behavioral repertoire for screening drugs with potential antidepressant activity. As in several other models used for this goal, an uncontrollable stress stimulus produces behavioral changes that are sensitive to antidepressant treatment.
The mice were intraperitoneally treated with the test compound with an injection volume of […]. The group treated with 30% PEG400 served as a control group. Thirty minutes following administration, mice were individually forced to swim in a transparent glass vessel (14 cm high, 11.5 cm in diameter) filled with 10 cm of water at 25° C. The total duration of immobility (second) was measured during the last 4 minutes of a single 6-min test session. Mice were considered immobile when they made no further attempts to escape other than the movements necessary to keep their heads above the water. The potent ability of the compounds was determined as percent value of reduction in the duration of immobility comparing to the control group.

[6] = molecular target: T3, human serotonin transporter (Homo sapiens, UniProt P31645); assay: Serotonin transporter reuptake inhibition assay; format: cell-based; conditions: HEK293; 100 nM; HEK-293 cells with human serotonin transporter; [3H]Serotonin uptake; read-out: Inhibition % at 100 nM 5-HT reuptake
T3 construct: expressed in transfected cells; host or cells: HEK-293
T3 sequence (P31645 whole entry): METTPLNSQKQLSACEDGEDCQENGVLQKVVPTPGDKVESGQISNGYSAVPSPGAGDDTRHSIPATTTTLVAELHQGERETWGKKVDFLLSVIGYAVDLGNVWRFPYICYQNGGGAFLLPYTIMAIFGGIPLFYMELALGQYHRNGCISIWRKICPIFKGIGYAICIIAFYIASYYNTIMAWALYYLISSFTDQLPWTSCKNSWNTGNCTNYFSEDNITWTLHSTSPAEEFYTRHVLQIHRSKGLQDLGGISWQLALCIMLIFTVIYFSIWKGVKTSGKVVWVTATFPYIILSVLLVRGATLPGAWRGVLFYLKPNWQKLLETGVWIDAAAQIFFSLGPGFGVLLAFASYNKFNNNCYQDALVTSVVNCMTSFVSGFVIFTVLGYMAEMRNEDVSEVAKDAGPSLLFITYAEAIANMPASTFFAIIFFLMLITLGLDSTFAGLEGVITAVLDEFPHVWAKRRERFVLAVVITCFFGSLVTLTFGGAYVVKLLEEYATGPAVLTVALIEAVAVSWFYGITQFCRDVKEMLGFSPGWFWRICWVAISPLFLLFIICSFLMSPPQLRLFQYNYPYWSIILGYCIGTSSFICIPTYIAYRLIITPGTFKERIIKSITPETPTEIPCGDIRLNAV
Experimental: Serotonin Transporter Reuptake Inhibition Assay
The method to test the ability of compounds to inhibit transporters from reuptake of serotonin followed Gu H. et al., J Biol. Chem., 1994, 269, p […].
The recombinant HEK-293 cells with human serotonin transporter were plated. Test compounds were pre-incubated with cells (2×10^5/ml) in modified Tris-HEPES buffer pH 7.1 for 20 minutes at 25° C. and then they were incubated for additional 10 minutes after 65 nM of [^3H]Serotonin was added. Bound cells were filtered and counted to determine [^3H]Serotonin uptake. Reduction of [^3H]Serotonin uptake by 50 percent or more (≧50%) relative to 10 μM fluoxetine indicates significant inhibitory activity. Compounds were screened at 10, 1, 0.1, 0.01 and 0.001 μM for IC50s.

| inhibition at 0.1 µM [2] [%] | inhibition at 0.1 µM [3] [%] | inhibition at 0.1 µM [6] [%] | SMILES | Reduction % at 30sc (number of writhing) (mice [1]) [%] | Reduction % at 30ip (number of marbles buried) (mice [4]) [%] | inhibition in vivo at 30 mg/kg (mice [5]) [%] |
| --- | --- | --- | --- | --- | --- | --- |
| 92 | 90 | 83 | Cc1nnn([C@@H](c2ccc3ccccc3c2)[C@@H]2CCCNC2)n1 [Example 12, (3R)-3-[(R)-(5-methyl-2H-tetrazol-2-yl)(naphthalen-2-yl)methyl]piperidine] | 50.5 | 91.8 | 9.7 |
| 99 | 98 | 75 | Clc1ccc([C@@H]([C@@H]2CCCNC2)n2ncnn2)cc1Cl [Example 15, (3R)-3-[(R)-(3,4-dichlorophenyl)(2H-tetrazol-2-yl)methyl]piperidine] | 55.3 | 75.3 | 96.5 |
| 54 | 46 | 92 | Fc1ccc2cc([C@H]([C@H]3CCCNC3)n3ncnn3)ccc2c1 [Example 71] | 48.7 | 86.0 | 54 |
| 66 | 78 | 96 | Fc1ccc2cc([C@@H]([C@@H]3CCCNC3)n3ncnn3)ccc2c1 [Example 83, (3R)-3-[(R)-(6-fluoronaphthalen-2-yl)(2H-tetrazol-2-yl)methyl]piperidine] | 84.1 | 83.7 | 51.8 |
